Data on eleven molecules can be found in ChEMBL document CHEMBL5233206, “An overview on the synthesis of carbohydrate-based molecules with biological activity related to neurodegenerative diseases” (RSC Med Chem, 2021).

In series [1] the target is T1, Cholinesterase (Equus caballus, UniProt P81908). As to the kind of experiment: Binding affinity to horse serum BuChE using ATCh-iodide as substrate by ellman's method.
The target in series [2] is T2, Acetylcholinesterase (Homo sapiens, UniProt P22303). As to the kind of experiment: Inhibition of AChE (unknown origin) at 50 uM incubated for 20 mins by absorbance based analysis relative to control.
Series [3] deals with T3, Cholinesterase (Homo sapiens, UniProt P06276). Briefly: Inhibition of BuChE (unknown origin) at 50 uM incubated for 20 mins by absorbance based analysis relative to control.
The nature of series [4]: Antioxidant activity assessed as ABTS radical scavenging activity. Format: functional.
For series [5], the target named is T1, Cholinesterase.
Description: Inhibition of equine serum BuChE by ellman's method
Series [6] concerns the target Acetylcholinesterase (Electrophorus electricus, UniProt O42275). Briefly: Inhibition of electrical eel AChE by ellman's method.
Series [7] is filed under the species Homo sapiens. Briefly: Selectivity ratio of IC50 for AChE (unknown origin) to IC50 for BuChE (unknown origin).
The target of series [8] is T3, Cholinesterase. As to the kind of experiment: Binding affinity to BuChE (unknown origin) assessed as inhibition constant by ellman's method.
Series [9] can be described thus: Lipophilicity, logP of the compound. The series is classed as physicochemical. The settings on record: octanol/water.
Series [10] deals with T3, Cholinesterase. As to the kind of experiment: Binding affinity to BuChE (unknown origin) assessed as inhibition constant incubated for 20 mins by absorbance based analysis.
In series [11] the target is T2, Acetylcholinesterase. As to the kind of experiment: Inhibition of AChE (unknown origin).

T2 sequence (P22303 whole entry): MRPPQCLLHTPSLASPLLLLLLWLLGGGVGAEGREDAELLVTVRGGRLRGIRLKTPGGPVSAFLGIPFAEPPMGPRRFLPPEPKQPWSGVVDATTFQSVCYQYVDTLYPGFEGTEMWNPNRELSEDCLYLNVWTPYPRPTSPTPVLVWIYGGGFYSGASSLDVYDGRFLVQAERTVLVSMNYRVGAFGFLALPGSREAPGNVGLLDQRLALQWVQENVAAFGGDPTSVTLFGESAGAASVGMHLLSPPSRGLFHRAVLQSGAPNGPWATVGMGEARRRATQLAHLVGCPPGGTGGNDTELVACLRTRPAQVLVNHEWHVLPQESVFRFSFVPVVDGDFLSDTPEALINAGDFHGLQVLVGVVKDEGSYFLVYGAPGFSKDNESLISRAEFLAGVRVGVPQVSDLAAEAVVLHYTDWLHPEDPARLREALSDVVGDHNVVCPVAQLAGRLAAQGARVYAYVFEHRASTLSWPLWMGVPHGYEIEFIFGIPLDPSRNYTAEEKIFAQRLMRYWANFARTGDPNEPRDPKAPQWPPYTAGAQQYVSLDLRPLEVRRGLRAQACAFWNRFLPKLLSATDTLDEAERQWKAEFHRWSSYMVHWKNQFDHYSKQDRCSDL
T3 sequence (P06276 whole entry): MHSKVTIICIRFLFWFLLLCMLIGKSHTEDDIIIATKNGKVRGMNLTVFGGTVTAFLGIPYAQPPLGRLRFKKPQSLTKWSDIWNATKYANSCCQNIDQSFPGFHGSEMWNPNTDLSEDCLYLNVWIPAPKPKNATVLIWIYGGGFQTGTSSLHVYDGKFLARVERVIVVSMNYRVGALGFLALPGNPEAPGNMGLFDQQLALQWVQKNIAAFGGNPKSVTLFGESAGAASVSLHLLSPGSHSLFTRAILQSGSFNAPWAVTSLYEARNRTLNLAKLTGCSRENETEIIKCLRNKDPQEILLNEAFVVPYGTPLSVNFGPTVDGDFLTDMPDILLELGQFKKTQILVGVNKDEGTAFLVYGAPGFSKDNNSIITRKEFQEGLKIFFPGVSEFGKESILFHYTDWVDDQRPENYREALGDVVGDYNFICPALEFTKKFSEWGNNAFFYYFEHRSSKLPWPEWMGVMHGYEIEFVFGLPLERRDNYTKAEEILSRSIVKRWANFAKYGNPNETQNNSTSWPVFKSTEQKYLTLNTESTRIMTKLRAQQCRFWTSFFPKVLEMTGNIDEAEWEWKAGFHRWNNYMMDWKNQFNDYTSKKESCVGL
T1 sequence (P81908 whole entry): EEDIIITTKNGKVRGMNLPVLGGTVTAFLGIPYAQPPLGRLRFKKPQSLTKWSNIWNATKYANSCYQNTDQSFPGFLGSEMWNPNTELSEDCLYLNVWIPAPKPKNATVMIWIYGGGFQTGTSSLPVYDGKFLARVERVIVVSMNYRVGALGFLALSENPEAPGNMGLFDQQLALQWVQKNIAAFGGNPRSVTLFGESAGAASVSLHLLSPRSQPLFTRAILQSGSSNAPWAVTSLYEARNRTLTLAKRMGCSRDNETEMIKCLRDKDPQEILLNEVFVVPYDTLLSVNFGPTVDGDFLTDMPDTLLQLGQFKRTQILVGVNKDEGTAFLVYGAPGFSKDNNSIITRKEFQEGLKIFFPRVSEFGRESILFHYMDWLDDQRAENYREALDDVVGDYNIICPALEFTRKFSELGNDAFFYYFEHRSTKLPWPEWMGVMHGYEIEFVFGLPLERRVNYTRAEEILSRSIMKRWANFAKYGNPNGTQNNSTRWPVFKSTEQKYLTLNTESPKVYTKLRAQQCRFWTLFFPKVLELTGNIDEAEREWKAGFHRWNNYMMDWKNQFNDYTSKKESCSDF
Acetylcholinesterase (Electrophorus electricus, UniProt O42275), sequence (O42275 whole entry): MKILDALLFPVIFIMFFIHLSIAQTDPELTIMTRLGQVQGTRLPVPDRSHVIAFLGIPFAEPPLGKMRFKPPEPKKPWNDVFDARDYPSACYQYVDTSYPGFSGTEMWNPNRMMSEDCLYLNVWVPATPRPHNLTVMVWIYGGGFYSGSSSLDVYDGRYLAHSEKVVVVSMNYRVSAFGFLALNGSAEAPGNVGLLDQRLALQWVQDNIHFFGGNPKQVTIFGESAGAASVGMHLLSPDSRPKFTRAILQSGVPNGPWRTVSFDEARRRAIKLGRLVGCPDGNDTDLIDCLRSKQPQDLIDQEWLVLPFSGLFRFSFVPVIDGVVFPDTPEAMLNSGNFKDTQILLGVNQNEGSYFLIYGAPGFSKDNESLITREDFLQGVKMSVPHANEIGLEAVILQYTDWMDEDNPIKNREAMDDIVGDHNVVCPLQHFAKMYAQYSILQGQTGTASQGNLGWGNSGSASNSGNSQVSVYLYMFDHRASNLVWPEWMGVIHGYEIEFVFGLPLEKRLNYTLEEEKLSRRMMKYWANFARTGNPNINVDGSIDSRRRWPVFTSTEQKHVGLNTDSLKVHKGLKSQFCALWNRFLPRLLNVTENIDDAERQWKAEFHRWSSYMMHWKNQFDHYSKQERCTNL

Broadly, the Ki is a measure of affinity in units of concentration, obtained from inhibition or displacement. Regarding `OC[C@H]1O[C@@H](OCCN2CN(Cc3ccccc3)c3ccccc32)[C@H](O)[C@@H](O)[C@H]1O`, the affinity in [1], expressed as Ki, was 26 µM.

In turn, `OC[C@H]1O[C@@H](OCCn2cnc3ccccc32)[C@H](O)[C@@H](O)[C@H]1O` yielded a Ki in series [1] of 782 µM.

Usually inhibition stands for the change of the read-out against control, counted positive when it falls. Regarding `CCCCCCCCO[C@H]1[C@H](OC(C)=O)[C@@H](Cn2c(=O)c3c(ncn3C)n(C)c2=O)OC(NS(C)(=O)=O)[C@@H]1OC(C)=O` (some centres not stated), the inhibition in series [2] was found to be 28.3%; in series [3] it was 52.6%.

By IC50 is commonly meant the point on the concentration scale where inhibition reaches its midpoint. For `CCCCCCCC[Se]C[C@H]1OC(OC)[C@H](O)[C@H]1O` (some centres not stated), in [4], the IC50 was 210 µM.

One may read the logP as the decadic logarithm of the partition coefficient of the neutral form, usually between octanol and water. A lower logP goes with lower lipophilicity. For `O=c1c2ccccc2n(CCCCCCn2cc(CO[C@@H]3O[C@H](CO)[C@@H](O)[C@H]3O)nn2)c2ccccc12`, the results for the IC50 in series [5] and in series [6] were 6.95 µM and 143 µM, respectively. Besides, in series [7], the Ratio IC50 turned out to be 20.6. Besides, in [8], the Ki was 1.76 µM. The same molecule gave a logP in series [9] of 2.68.

Consider `CCCCCCCCO[C@H]1[C@H](OC(C)=O)[C@@H](Cn2c(=O)c3c(ncn3C)n(C)c2=O)OC(OC(C)=O)[C@@H]1OC(C)=O` (some centres not stated), for which the inhibition worked out at 66.5% in series [2] and 75.1% in series [3]. For the same molecule, the Ki in [10] came out at 5.4 µM.

In turn, `COc1cc([C@@H](O)[C@H](CO[C@@H]2O[C@H](CO)[C@@H](O)[C@H](O)[C@H]2O)Oc2ccc(CCCO)cc2OC)ccc1O` had an IC50 in [11] of 0.75 µM.

As for `CC1=C(CO[C@@H]2O[C@H](CO[C@@H]3O[C@H](CO)[C@@H](O)[C@H](O)[C@H]3O)[C@@H](O)[C@H](O)[C@H]2O)C(C)(C)CCC1`, the half-maximal inhibitory concentration (IC50) in series [11] stood at 3.2 µM.

On to `COc1ccc2c(c1)c(=O)c1ccccc1n2CCCCCCn1cc(CO[C@@H]2O[C@H](CO)[C@@H](O)[C@H](O)[C@H]2O)nn1`, for which the results for the IC50 in series [5] and in series [6] were 82.3 µM and 56.1 µM, respectively. Also, the logP in series [9] came to 2.14.

On to `O=c1c2ccccc2n(CCCCCCn2cc(CO[C@@H]3O[C@H](CO)[C@@H](O)[C@H](O)[C@H]3O)nn2)c2ccccc12`, for which the IC50 in series [5] turned out to be 29.3 µM; in series [6], 38.2 µM. The molecule further registered a logP in [9] of 2.14.

The molecule `OC[C@H]1O[C@@H](OCCN2CN(Cc3ccccc3)c3ccccc32)[C@H](O)[C@@H](O)[C@@H]1O` displayed a Ki in [1] of 52 µM.
